These results are taken from BindingDB's records for doi:10.1016/j.bmcl.2019.06.049 (Dongguk University, 2019).

In the assay the target is T1, Nuclear factor erythroid 2-related factor 2 (Homo sapiens, UniProt Q16236).
T1 sequence (Q16236 whole entry): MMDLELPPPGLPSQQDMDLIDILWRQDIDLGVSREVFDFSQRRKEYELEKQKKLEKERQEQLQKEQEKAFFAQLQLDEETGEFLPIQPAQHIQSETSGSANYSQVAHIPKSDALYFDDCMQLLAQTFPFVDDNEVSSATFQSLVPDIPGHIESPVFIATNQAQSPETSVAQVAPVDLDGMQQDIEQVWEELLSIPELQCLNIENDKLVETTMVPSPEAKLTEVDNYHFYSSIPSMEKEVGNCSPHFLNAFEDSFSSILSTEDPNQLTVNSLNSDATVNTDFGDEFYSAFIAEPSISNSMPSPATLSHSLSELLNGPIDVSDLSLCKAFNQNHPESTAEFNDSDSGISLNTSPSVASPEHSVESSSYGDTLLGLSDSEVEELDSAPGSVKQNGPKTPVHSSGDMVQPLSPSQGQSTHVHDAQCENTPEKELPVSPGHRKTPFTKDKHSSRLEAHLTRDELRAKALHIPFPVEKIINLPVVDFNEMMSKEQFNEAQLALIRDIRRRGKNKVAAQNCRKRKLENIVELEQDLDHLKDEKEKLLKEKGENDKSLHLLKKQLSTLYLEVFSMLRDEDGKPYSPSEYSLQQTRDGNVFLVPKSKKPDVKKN
The experiment in a line: Inhibition of NRF2 in human MDA-MB-231 cells harboring ARE-GFP-Luc assessed as reduction in ARE-luciferase activity after 16 hrs by firefly luciferase reporter gene assay.

As for `COC(=O)[C@@]12OC[C@]34[C@H]([C@@H](O)[C@@H]1O)[C@@]1(C)CC(=O)C(O)=C(C)[C@@H]1C[C@H]3OC(=O)[C@H](OC(=O)C=C(C)C)[C@@H]24`, the half-maximal inhibitory concentration (IC50) stood at 29 nM.
